± gives the standard deviation of the reports.
Row | Structure (SMILES) | glass transition temperature
1 | *CC(*)OC(=O)/C=C/c1ccccc1 (repeat unit) | 127.00 °C
2 | *C(=O)Nc1cccc2cccc(N3C(=O)CC(N4C(=O)c5ccc(*)cc5C4=O)C3=O)c12 (repeat unit) | 193.00 °C
3 | *c1cccc(Oc2cccc(Oc3cccc(N4C(=O)c5ccc(-c6ccc7c(c6)C(=O)N(*)C7=O)cc5C4=O)c3)c2)c1 (repeat unit) | 205.00 ± 3 °C
4 | *CC1CC2CC1C1CCC(CN3C(=O)c4ccc(Oc5ccc6c(c5)C(=O)N(*)C6=O)cc4C3=O)C21 (repeat unit) | 201.00 °C
5 | *c1ccc(Oc2ccc(-c3ccc(Oc4ccc(N5C(=O)c6ccc(Oc7ccc(C8(c9ccc(Oc%10ccc%11c(c%10)C(=O)N(*)C%11=O)cc9)CCCCCCCCCCC8)cc7)cc6C5=O)cc4)cc3C)c(C)c2)cc1 (repeat unit) | 257.00 °C
6 | *CC(*)c1ccc(C(=O)N(C)C)cc1 (repeat unit) | 125.00 °C
7 | *CC(*)(C)C(=O)OC(COc1ccc(-c2ccccc2)cc1)COc1ccc(-c2ccccc2)cc1 (repeat unit) | 85.00 °C
8 | *c1ccc(-c2ccc(C3(*)c4ccccc4-c4ccccc43)cc2)cc1 (repeat unit) | 297.00 °C
9 | *CC(*)C(=O)OCCCCCCOc1ccc(/C=N/c2ccc(OCCCCC)cc2)c(O)c1 (repeat unit) | 41.00 °C
10 | *Oc1ccc(-c2ccc(OC(=O)OC3C(C)(C)C(OC(*)=O)C3(C)C)cc2)cc1 (repeat unit) | 165.00 °C
11 | *CC(*)Cc1ccc(C)cc1 (repeat unit) | 65.00 °C
12 | *Oc1c(C)cc(-c2cc(C)c(OC(=O)CCCCC(*)=O)c(C)c2)cc1C (repeat unit) | 108.00 °C
13 | *c1ccc(-c2cc(-c3ccc(OCCCCCC)cc3)cc(-c3ccc(-c4ccc5c(c4)C(CCCCCC)(CCCCCC)c4cc(*)ccc4-5)cc3)c2-c2ccc(OCCCCCC)cc2)cc1 (repeat unit) | 118.00 °C
14 | *Oc1ccc2cc(Oc3ccc(C(=O)c4ccc(*)cc4)cc3)ccc2c1 (repeat unit) | 247.00 °C
15 | *c1ccc(Oc2ccc(S(=O)(=O)c3ccc(Oc4ccc(-c5c6c(c(*)c7ccccc57)C(=O)N(c5cccc(C(F)(F)F)c5)C6=O)cc4)cc3)cc2)cc1 (repeat unit) | 280.50 °C
16 | *c1ccc(NC(=O)c2ccc(NC(=O)c3ccc([Si](C)(C)c4ccc(C(=O)Nc5ccc(C(=O)Nc6ccc(S(*)(=O)=O)cc6)cc5)cc4)cc3)cc2)cc1 (repeat unit) | 315.00 °C
17 | *CC(=O)Nc1ccc(Oc2ccc(NC(=O)COc3ccc4ccccc4c3Sc3c(O*)ccc4ccccc34)cc2)cc1 (repeat unit) | 245.00 °C
18 | *CCOCCOCCN1C(=O)c2ccc(C(=O)Oc3ccc(OC(=O)c4ccc5c(c4)C(=O)N(*)C5=O)c(-c4ccccc4)c3)cc2C1=O (repeat unit) | 105.00 °C
19 | *Nc1ccc(C(c2ccc(NC(=O)c3cc(C(*)=O)cc(C(C)(C)C)c3)cc2)(P2(=O)Oc3ccccc3-c3ccccc32)P2(=O)Oc3ccccc3-c3ccccc32)cc1 (repeat unit) | 235.00 °C
20 | *C1C(=O)N(CCCCCCOc2ccc(-c3ccc(C#N)cc3)cc2)C(=O)C1* (repeat unit) | 76.00 °C
21 | *c1c(C)cc(C)c(N2C(=O)c3cccc(Oc4c(C)cc(-c5cc(C)c(Oc6cccc7c6C(=O)N(*)C7=O)c(C)c5)cc4C)c3C2=O)c1C (repeat unit) | 325.00 °C
22 | *CC(*)C(=O)[O][Na] (repeat unit) | 114.40 °C

Row | Structure (SMILES) | glass transition temperature
23 | *c1ccc2c(c1)C(=O)N(c1ccc(N(c3ccc(C#N)cc3)c3ccc(N4C(=O)c5ccc(C(*)(C(F)(F)F)C(F)(F)F)cc5C4=O)cc3)cc1)C2=O (repeat unit) | 321.00 °C
24 | *c1ccc(-c2cc(CCCCCCCC)c(-c3ccc(-c4ccc(-c5sc(-c6ccc([Si](C)(C)[Si](*)(C)C)s6)cc5CCCCCCCC)s4)s3)s2)s1 (repeat unit) | 12.00 °C
25 | *Oc1ccc(-c2ccc(Oc3ccc(Oc4cccc(Oc5ccc(*)cc5)c4C)cc3)c3ccccc23)c2ccccc12 (repeat unit) | 156.00 °C
26 | *c1ccc(OCCN(CC)c2ccc(-c3ccc(C(=C(C#N)C#N)c4ccc(N(CC)CC)cc4)s3)cc2)c(-c2cc(-c3ccccc3)c3cc(Oc4ccc5nc(*)cc(-c6ccccc6)c5c4)ccc3n2)c1 (repeat unit) | 215.00 °C
27 | *Cc1cccc(CNC(=O)c2ccccc2-c2ccccc2C(=O)N*)c1 (repeat unit) | 159.00 °C
28 | *CCN(CCOC(=O)Nc1ccc(C)c(NC(=O)O*)c1)c1ccc([N+](=O)[O-])cc1C (repeat unit) | 98.00 °C
29 | *Oc1ccc(OC(=O)c2ccc(C(*)=O)cc2Sc2ccccc2)cc1 (repeat unit) | 181.00 °C
30 | *CCC1C(=O)N(CCCCCCCCCCCCCCCC)C(=O)C1* (repeat unit) | 65.60 °C
31 | *CC(*)(CC(=O)OCC)C(=O)OCC (repeat unit) | 65.50 °C
32 | *Oc1ccc2c(c1)C1(CC2(C)C)CC(C)(C)c2ccc(OC(=O)c3ccc(C(*)=O)cc3)cc21 (repeat unit) | 290.00 °C
33 | *CC(*)C(=O)OCCCOc1ccc(C(=O)OCCCC(F)(F)C(F)(F)C(F)(F)C(F)(F)C(F)(F)C(F)(F)C(F)(F)C(F)(F)F)cc1 (repeat unit) | 48.00 °C
34 | */C(C)=C(/*)[Si](C)(C)C[Si](C)(C)C (repeat unit) | 200.00 °C
35 | *c1cc(CCCCCC)c(-c2ccc3c4ccc(-c5sc(-c6sc(*)c7nc(CC)c(CC)nc67)cc5CCCCCC)cc4n(CCCCCCCCCCCC)c3c2)s1 (repeat unit) | 89.00 °C
36 | *C(=O)Nc1ccc(-c2sc(-c3ccc(NC(=O)c4ccc5c(c4)C(=O)N(c4ccc(Oc6cccc7c(Oc8ccc(N9C(=O)c%10ccc(*)cc%10C9=O)cc8)cccc67)cc4)C5=O)cc3)c(-c3ccccc3)c2-c2ccccc2)cc1 (repeat unit) | 340.00 °C
37 | *c1cccc(N2C(=O)c3cccc(Oc4ccc(C(C)(C)c5ccc(Oc6cccc7c6C(=O)N(*)C7=O)cc5)cc4)c3C2=O)c1 (repeat unit) | 227.50 °C
38 | *CCCCCCOC(=O)Nc1cccc(P(=O)(c2ccccc2)c2cccc(NC(=O)O*)c2)c1 (repeat unit) | 30.00 °C
39 | *Cc1cc2cc(C(=O)Nc3ccc(NC(=O)c4cc5cc(*)c(OC(=O)COc6ccc7ccc(=O)oc7c6)cc5oc4=O)cc3)c(=O)oc2cc1OC(=O)COc1ccc2ccc(=O)oc2c1 (repeat unit) | 252.00 °C
40 | *Oc1ccc(S(=O)(=O)c2ccc3cc(S(=O)(=O)c4ccc(Oc5c(C)cc(-c6cc(C)c(*)c(C)c6C)c(C)c5C)cc4)ccc3c2)cc1 (repeat unit) | 300.00 °C
41 | *c1ccc(Oc2ccc(-n3c(=O)c4cc5c(=O)n(-c6ccc(Oc7ccc(-c8nc9cc%10sc(*)nc%10cc9s8)cc7)cc6)c(=O)c5cc4c3=O)cc2)cc1 (repeat unit) | 400.00 °C
42 | *Oc1ccc(S(=O)(=O)c2ccc(Oc3ccc(-c4ccc(*)cc4)cc3)cc2)cc1 (repeat unit) | 221.00 °C
43 | *CC(*)C(=O)Oc1ccc(/N=N/c2ccc([N+](=O)[O-])cc2)cc1 (repeat unit) | 134.00 °C
44 | *CC(*)C(=O)Oc1ccc(C)cc1 (repeat unit) | 42.50 °C

From the PolyMetriX glass transition set
